Assay results: PubChem BioAssay (NCI)
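Following 48 hours of exposure in 96-well plates, responses at five concentrations were used to interpolate endpoints linearly. The concentration for 50% growth inhibition is given as GI50. Definition used: TGI = concentration required for complete inhibition of growth.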

Assays:
Test in all cases: NCI tumour cell line growth inhibition, 48 h
HCT-116 colon = tested on: HCT-116 colon
HL-60(TB) leukemia = tested on: HL-60(TB) leukemia
HCT-15 colon = tested on: HCT-15 colon
OVCAR-8 ovarian = tested on: OVCAR-8 ovarian
SF-539 CNS = tested on: SF-539 CNS
M14 melanoma = tested on: M14 melanoma
CAKI-1 renal = tested on: CAKI-1 renal
HT29 colon = tested on: HT29 colon
HS 578T breast = tested on: HS 578T breast
K-562 leukemia = tested on: K-562 leukemia
NCI/ADR-RES ovarian = tested on: NCI/ADR-RES ovarian
OVCAR-5 ovarian = tested on: OVCAR-5 ovarian
MCF7 breast = tested on: MCF7 breast
T-47D breast = tested on: T-47D breast
UACC-257 melanoma = tested on: UACC-257 melanoma
SK-MEL-28 melanoma = tested on: SK-MEL-28 melanoma
RPMI-8226 leukemia = tested on: RPMI-8226 leukemia
SNB-19 CNS = tested on: SNB-19 CNS
HCC-2998 colon = tested on: HCC-2998 colon
SNB-75 CNS = tested on: SNB-75 CNS
LOX IMVI melanoma = tested on: LOX IMVI melanoma
TK-10 renal = tested on: TK-10 renal
A549 NSCLC = tested on: A549 NSCLC
SF-295 CNS = tested on: SF-295 CNS
SK-MEL-5 melanoma = tested on: SK-MEL-5 melanoma
HOP-92 NSCLC = tested on: HOP-92 NSCLC
NCI-H23 lung = tested on: NCI-H23 lung
OVCAR-4 ovarian = tested on: OVCAR-4 ovarian
KM12 colon = tested on: KM12 colon
OVCAR-3 ovarian = tested on: OVCAR-3 ovarian
HOP-62 NSCLC = tested on: HOP-62 NSCLC
SW-620 colon = tested on: SW-620 colon
RXF 393 renal = tested on: RXF 393 renal
MDA-MB-231 breast = tested on: MDA-MB-231 breast
SF-268 CNS = tested on: SF-268 CNS
COLO 205 colon = tested on: COLO 205 colon
MOLT-4 leukemia = tested on: MOLT-4 leukemia
CCRF-CEM leukemia = tested on: CCRF-CEM leukemia
NCI-H522 lung = tested on: NCI-H522 lung
SN12C renal = tested on: SN12C renal
UO-31 renal = tested on: UO-31 renal
EKVX NSCLC = tested on: EKVX NSCLC
SR leukemia = tested on: SR leukemia
DU-145 prostate = tested on: DU-145 prostate
U251 CNS = tested on: U251 CNS
IGROV1 ovarian = tested on: IGROV1 ovarian
SK-MEL-2 melanoma = tested on: SK-MEL-2 melanoma
MALME-3M melanoma = tested on: MALME-3M melanoma
A498 renal = tested on: A498 renal
SK-OV-3 ovarian = tested on: SK-OV-3 ovarian
MDA-MB-468 breast = tested on: MDA-MB-468 breast
NCI-H226 lung = tested on: NCI-H226 lung
UACC-62 melanoma = tested on: UACC-62 melanoma
MDA-MB-435 = tested on: MDA-MB-435
NCI-H460 lung = tested on: NCI-H460 lung
BT-549 breast = tested on: BT-549 breast
PC-3 prostate = tested on: PC-3 prostate
786-0 renal = tested on: 786-0 renal
ACHN renal = tested on: ACHN renal

## O=C(N=Nc1c(O)[nH]c2ccc(Cl)cc12)c1ccc2nc(-c3ccc(Cl)cc3)[nH]c2c1
HCT-116 colon
  GI50: 2.35 µM
  TGI: > 57.7 µM
HL-60(TB) leukemia
  GI50: 10.1 µM
  TGI: > 57.7 µM
HCT-15 colon
  GI50: > 57.7 µM
  TGI: > 57.7 µM
OVCAR-8 ovarian
  GI50: 4.42 µM
  TGI: > 57.7 µM
SF-539 CNS
  GI50: 2.11 µM
  TGI: 8.18 µM
M14 melanoma
  GI50: 3.82 µM
  TGI: > 57.7 µM
CAKI-1 renal
  GI50: > 57.7 µM
  TGI: > 57.7 µM
HT29 colon
  GI50: 2.33 µM
  TGI: > 57.7 µM
HS 578T breast
  GI50: 2.67 µM
  TGI: 41.3 µM
K-562 leukemia
  GI50: 1.62 µM
  TGI: > 57.7 µM
NCI/ADR-RES ovarian
  GI50: > 57.7 µM
  TGI: > 57.7 µM
OVCAR-5 ovarian
  GI50: 3.5 µM
  TGI: > 57.7 µM
MCF7 breast
  GI50: 1.39 µM
  TGI: > 57.7 µM
T-47D breast
  GI50: 2 µM
  TGI: 44.3 µM
UACC-257 melanoma
  GI50: 40 µM
  TGI: > 57.7 µM
SK-MEL-28 melanoma
  GI50: 6.25 µM
  TGI: 49.7 µM
RPMI-8226 leukemia
  GI50: > 57.7 µM
  TGI: > 57.7 µM
SNB-19 CNS
  GI50: 2.05 µM
  TGI: 10.7 µM
HCC-2998 colon
  GI50: 3.4 µM
  TGI: > 57.7 µM
SNB-75 CNS
  GI50: 1.74 µM
  TGI: 14 µM
LOX IMVI melanoma
  GI50: 1.07 µM
  TGI: 2.32 µM
TK-10 renal
  GI50: 40.9 µM
  TGI: > 57.7 µM
A549 NSCLC
  GI50: 29 µM
  TGI: > 57.7 µM
SF-295 CNS
  GI50: 2.97 µM
  TGI: 20.2 µM
SK-MEL-5 melanoma
  GI50: > 57.7 µM
  TGI: > 57.7 µM
HOP-92 NSCLC
  GI50: 8.67 µM
  TGI: 39 µM
NCI-H23 lung
  GI50: 2.22 µM
  TGI: 9.84 µM
OVCAR-4 ovarian
  GI50: 1.98 µM
  TGI: 18.8 µM
KM12 colon
  GI50: > 57.7 µM
  TGI: > 57.7 µM
OVCAR-3 ovarian
  GI50: 5.2 µM
  TGI: > 57.7 µM
HOP-62 NSCLC
  GI50: 6.93 µM
  TGI: 24 µM
SW-620 colon
  GI50: 1.91 µM
  TGI: > 57.7 µM
RXF 393 renal
  GI50: 2.99 µM
  TGI: 19.4 µM
MDA-MB-231 breast
  GI50: 1.51 µM
  TGI: 4.74 µM
SF-268 CNS
  GI50: 1.78 µM
  TGI: 10.6 µM
COLO 205 colon
  GI50: 2.27 µM
  TGI: 10.5 µM
MOLT-4 leukemia
  GI50: 1.42 µM
  TGI: 16.5 µM
CCRF-CEM leukemia
  GI50: 0.969 µM
  TGI: 4.39 µM
NCI-H522 lung
  GI50: 3.73 µM
  TGI: 27.2 µM
SN12C renal
  GI50: 2.53 µM
  TGI: 33.2 µM
UO-31 renal
  GI50: > 57.7 µM
  TGI: > 57.7 µM
EKVX NSCLC
  GI50: 16.6 µM
  TGI: > 57.7 µM
SR leukemia
  GI50: 3.29 µM
  TGI: > 57.7 µM
DU-145 prostate
  GI50: 3.74 µM
  TGI: > 57.7 µM
U251 CNS
  GI50: 1.75 µM
  TGI: 6.46 µM
IGROV1 ovarian
  GI50: 3.64 µM
  TGI: > 57.7 µM
SK-MEL-2 melanoma
  GI50: 41.5 µM
  TGI: > 57.7 µM
MALME-3M melanoma
  GI50: 2.27 µM
  TGI: 10.9 µM
A498 renal
  GI50: 18.4 µM
  TGI: 57 µM
SK-OV-3 ovarian
  GI50: 15.5 µM
  TGI: > 57.7 µM
MDA-MB-468 breast
  GI50: 1.4 µM
  TGI: 4.88 µM
NCI-H226 lung
  GI50: 13.7 µM
  TGI: > 57.7 µM
UACC-62 melanoma
  GI50: 4.64 µM
  TGI: 26.6 µM
MDA-MB-435
  GI50: 2.05 µM
  TGI: 13.3 µM
NCI-H460 lung
  GI50: 2.38 µM
  TGI: > 57.7 µM
BT-549 breast
  GI50: 7.12 µM
  TGI: 25.8 µM
PC-3 prostate
  GI50: 7.5 µM
  TGI: > 57.7 µM
786-0 renal
  GI50: 3.08 µM
  TGI: 21.2 µM
ACHN renal
  GI50: 23.5 µM
  TGI: > 57.7 µM

## Cn1cc(-c2cc(N)n3nc(-c4cn(C)c5ncc(Br)cc45)cc3n2)c2cc(Br)cnc21
HCT-116 colon
  GI50: 1.72 µM
  TGI: 3.3 µM
HL-60(TB) leukemia
  GI50: 2 µM
  TGI: 4.94 µM
HCT-15 colon
  GI50: 1.59 µM
  TGI: 3.24 µM
OVCAR-8 ovarian
  GI50: 2.49 µM
  TGI: 6.67 µM
SF-539 CNS
  GI50: 1.71 µM
  TGI: 3.18 µM
M14 melanoma
  GI50: 1.65 µM
  TGI: 3.16 µM
CAKI-1 renal
  GI50: 3.68 µM
  TGI: 15.4 µM
HT29 colon
  GI50: 1.8 µM
  TGI: 3.44 µM
HS 578T breast
  GI50: 3.19 µM
  TGI: 15.7 µM
K-562 leukemia
  GI50: 2.34 µM
  TGI: 8.45 µM
NCI/ADR-RES ovarian
  GI50: 2.04 µM
  TGI: 4.7 µM
OVCAR-5 ovarian
  GI50: 10.5 µM
  TGI: 33.9 µM
MCF7 breast
  GI50: 1.72 µM
  TGI: 4.12 µM
T-47D breast
  GI50: 2.35 µM
  TGI: 9.43 µM
UACC-257 melanoma
  GI50: 2.28 µM
  TGI: 5.33 µM
SK-MEL-28 melanoma
  GI50: 1.77 µM
  TGI: 3.35 µM
RPMI-8226 leukemia
  GI50: 2.23 µM
  TGI: 5.87 µM
SNB-19 CNS
  GI50: 1.95 µM
  TGI: 4.05 µM
HCC-2998 colon
  GI50: 1.73 µM
  TGI: 3.44 µM
SNB-75 CNS
  GI50: 8.48 µM
  TGI: 26.3 µM
LOX IMVI melanoma
  GI50: 1.59 µM
  TGI: 2.96 µM
TK-10 renal
  GI50: 1.79 µM
  TGI: 4.03 µM
A549 NSCLC
  GI50: 2.07 µM
  TGI: 4.97 µM
SF-295 CNS
  GI50: 1.86 µM
  TGI: 4.02 µM
SK-MEL-5 melanoma
  GI50: 3.95 µM
  TGI: 16.8 µM
HOP-92 NSCLC
  GI50: 1.71 µM
  TGI: 6.42 µM
NCI-H23 lung
  GI50: 1.92 µM
  TGI: 3.76 µM
OVCAR-4 ovarian
  GI50: 2.11 µM
  TGI: 4.57 µM
KM12 colon
  GI50: 1.83 µM
  TGI: 5.81 µM
OVCAR-3 ovarian
  GI50: 1.72 µM
  TGI: 3.21 µM
HOP-62 NSCLC
  GI50: 2.36 µM
  TGI: 6.63 µM
SW-620 colon
  GI50: 1.77 µM
  TGI: 3.59 µM
RXF 393 renal
  GI50: 2.62 µM
  TGI: 6.9 µM
MDA-MB-231 breast
  GI50: 2.59 µM
  TGI: 9.79 µM
SF-268 CNS
  GI50: 7.52 µM
  TGI: 38 µM
COLO 205 colon
  GI50: 4.29 µM
  TGI: 31.8 µM
MOLT-4 leukemia
  GI50: 1.53 µM
  TGI: 4.37 µM
CCRF-CEM leukemia
  GI50: 1.43 µM
  TGI: 3.72 µM
NCI-H522 lung
  GI50: 2.27 µM
  TGI: 5.52 µM
SN12C renal
  GI50: 10.6 µM
  TGI: 34.9 µM
UO-31 renal
  GI50: 6.81 µM
  TGI: 22.1 µM
EKVX NSCLC
  GI50: 2.18 µM
  TGI: 8.92 µM
DU-145 prostate
  GI50: 2.54 µM
  TGI: 6.77 µM
U251 CNS
  GI50: 1.93 µM
  TGI: 3.89 µM
IGROV1 ovarian
  GI50: 4.65 µM
  TGI: 18.5 µM
SK-MEL-2 melanoma
  GI50: 2.01 µM
  TGI: 4.4 µM
MALME-3M melanoma
  GI50: 1.93 µM
  TGI: 3.49 µM
A498 renal
  GI50: > 100 µM
  TGI: > 100 µM
SK-OV-3 ovarian
  GI50: 19.1 µM
  TGI: 36.4 µM
MDA-MB-468 breast
  GI50: 1.54 µM
  TGI: 2.95 µM
NCI-H226 lung
  GI50: 8.32 µM
  TGI: 26.4 µM
UACC-62 melanoma
  GI50: 1.58 µM
  TGI: 3.03 µM
MDA-MB-435
  GI50: 1.95 µM
  TGI: 4.29 µM
NCI-H460 lung
  GI50: 1.91 µM
  TGI: 3.89 µM
BT-549 breast
  GI50: 3.38 µM
  TGI: 14.1 µM
PC-3 prostate
  GI50: 2.49 µM
  TGI: 8.41 µM
786-0 renal
  GI50: 1.77 µM
  TGI: 3.46 µM
ACHN renal
  GI50: 1.96 µM
  TGI: 3.72 µM
